Assay results: patent publication US20130136778A1, “PTEROSTILBENE (PTER) FOR USE IN THE PREVENTION AND/OR TREATMENT OF SKIN DISEASES, DAMAGES OR INJURIES” (GREEN MOLECULAR, S.L., priority 2009, published 2013)

Tests used:
[1] = Absorption spectrum of polyphenols (mechanical filter capacity); assay type: physicochemical; conditions: 1 mM in pure ethanol, 200-800 nm
Procedure: A solution of 1 mM of each polyphenol was prepared (PTER, Resveratrol and QUER) in absolute ethanol (HPLS quality; Quima) and the absorption spectrum was studied between 200 and 800 nm using a Multiskan Spectrum (ThermoScientific).
With the purpose of studying the capacity of the polyphenols used in this study, we decided to evaluate the absorption of light throughout the ultraviolet light spectrum as shown in FIG. 13.

SKH-1 mice [2] = assay: Photocarcinogenesis: chronic exposure to UV-B, precancerous lesions/tumors per mouse; assay type: in vivo; conditions: after 30 weeks of chronic exposure to UV-B
Text: The role of UV-B radiation in tumor formation is well known. The continuous exposure to UV-B promotes the formation of oxidative/nitrosative stress, along with alterations in DNA, proteins, etc. that activates various transcription factors (among them NF-κB and AP-1), increase in the telomerase activity, stress, etc. which in turn induces carcinogenesis.
The mice chosen for this study were SKH-1.
The protocol used was the standardized protocol, whereby several mice were irradiated three times per week with a dose of 180 mJ/cm^2 with exposures for 24 weeks; however, […], in order to obtain more evidence of the photoprotector effect on the different treatments used.
The dose of exposure was 180 mJ/cm2, since it had been determined in previous trials that this was the minimal erythemic dose (MED) for this type of rodent.
A range of different commercial photoprotectors were included in this study: • Vichy: Capital Soleil SPF-50+(Vichy Laboratoires). • Isdin: Photoprotector Isdin Extrem (SPF-40 (Isdin SA) • Heliocare: Heliocare gel Protection Ultra 90 (Difa Cooper S.P.A.)
Both the reference compounds and the ones subject of this study were applied to the back of the mice for 20 minutes prior to their exposure to UV-B. […]
During the photocarcinogenesis process, the presence of different tumors was followed and quantified throughout the process. […]

SKH-1 mice [3] = assay: Experimental psoriasis induced by TPA; assay type: in vivo
Procedure: For the induction of psoriasis, the agent “12-O-tetradecanoylphorbol-13 acetate” (TPA) was used.
Since our objective was to assess the progress of the lesions caused by psoriasis in combination with the use of polyphenols, a model of continuous exposure and a weaker concentration of TPA were used, on a daily dose of 2 nmoles of TPA over a period of a week, which allowed us to observe the progress of the psoriasis.
The induction was performed with 2 nmol TPA/mouse on an area of 1 cm^2, applying 10 μL of the 200 μM solution in acetone. This application protocol was carried out taking into account that when applying 20 μL as stated in the model, the volume increased considerably and it lost its concentration, therefore it was decided to make it more concentrated.
As a standard treatment, Dexamethasone was used, (from Sigma Solution 25 mM in acetone). The administration of the standard treatment and the products to be tested were given 30 minutes prior to the application of TPA, both beginning on the same day.
The groups, of 6 mice, for this assessment were: • Not treated. • Reference compound: 0.5 μmoles of Dexamethasone (200 μL of one solution 25 mM in acetone). • Medium: 200 μl of vacuumed Liposomes. • Resveratrol: 200 μL of Resveratrol Liposomes (10 μmol in total). • PTER: 200 μL of PTER Liposomes (10 μmol in total). • QUER: 200 μL of QUER Liposomes (10 μmol in total). • PTER+QUER:: 200 μL of PTER Liposomes+QUER (10 μmol in total).
At 24 hours (day 7) after the last administration of the different treatments and TPA, 3 mice from each group were sacrificed and their skin fixed with 4% PFA. The remaining mice were kept under the treatment with no exposure to TPA, to verify if the skin recovered faster on the treatment than on its own. At 24 hours (day 9) after the last administration of the different treatments the rest of the mice were sacrificed and their skin fixed with 4% PFA.
The flaky aspect of the skin was quantified in a scale of 0-3, being 0, nothing; 1, mild; 2, moderate; 3, severe.

SKH-1 mice [4] = assay: Thickness of the epidermis after acute UV-B exposure of 360 mJ/cm2; assay type: in vivo
Procedure: UVB Acute exposure protocols were used: Mice underwent a single exposure of 360 mJ/cm2. The study was conducted at 24 hours after exposure. This protocol was used to evaluate the photoprotective effect of the compounds studied. With the same acute-phase protocol mice from all groups were irradiated. Subsequently mice remained in the animal storage area for a week to see the evolution of the inflammatory response and edema. • 1. Edema formation: skinfold thickness was determined with a caliper 24 hours after the first exposure. • 2. Study of the thickness of the epidermis after exposure to acute irradiation (360 mj/cm^2 24 h hours and 7 days after irradiation). • 3. Histological studies: measuring, in the pictures obtained from histological sections, the thickness of the epidermis. For studies of acute exposure skin samples were taken from the back of the mouse. These samples were fixed with 4% paraformaldehyde (24 hours) and embedded in paraffin. Following cutting the samples were stained with hematoxylin and eosin. The two protocols of UV-B exposure used were: • Intense exposure after a single exposure of 360 mJ/cm^2. The study was carried out 24 hours after the exposure. This protocol was used to assess the photoprotective effects of the compounds studied. • Intense exposure after a single exposure of 360 mJ/cm^2. The study was carried out 1 week after the exposure. The mice were kept in the shed for a week to observe the evolution of the inflammatory and edematous response. At 24 hours or 1 week after the administration of the different treatments the mice were sacrificed and their skin fixed with 4% PFA. To measure the thickness of the epidermis to evaluate possible hyperplasia, a computer program was used, Image J, calibrated with the assistance of a Neubauer camera which allowed the measuring of the epidermis. Results obtained were statistically analyzed by ANOVA and contrasted by the Tukey test and grouped according to the significant differences. […] Therefore PTER alone could be used efficiently in the prevention of skin diseases, injuries or damages induced by ultraviolet B radiation. The evaluation of skin thickness was carried out by using computer software (IMAGE J). Results obtained by ANOVA were contrasted by the Tukey test and grouped according to the significant differences. […] Therefore PTER separately could be used efficiently in the prevention of skin diseases, damages or injuries induced by ultraviolet B radiation.

For `COc1cc(/C=C/c2ccc(O)cc2)cc(OC)c1` [PTER, 3,5-dimethoxy-4′-hydroxy-trans-resveratrol], the “absorption of light, range of maximum absorption” value [1] was “peaks or maximum absorption in the range of Ultraviolet B”, the mice presenting lesions (SKH-1 mice [2]) was 10% and the “index of excoriation or descaling (scale 0-3)” value (SKH-1 mice [3]; 24 hours after 7 administrations of TPA) was “fewer indexes of excoriation or descaling”. The “increase of skinfold throughout the procedure” value (SKH-1 mice [3]; FIG. 23, 6 consecutive days, treatment 30 min prior to 2 nmol TPA) was “an important decrease in the increase of skinfolds”, the “increase in the skinfold 24 hours after the first administration of TPA” value (SKH-1 mice [3]; FIG. 24, treatment 30 min prior to 2 nmol TPA) was “significantly diminished the appearance of edema” and the “skinfold after 3 administrations of TPA” value (SKH-1 mice [3]; FIG. 25) was “produce a diminishing effect on the inflammation produced by TPA”. The “histological analysis of the lesions” value (SKH-1 mice [3]; FIG. 28, hematoxylin-eosin, TPA daily over 7 days) was “no signs of papillomatosis, but there was acanthosis due to a massive proliferation”, the “thickness of the epidermis 24 hours after irradiation, applied after UVB” value (SKH-1 mice [4]; FIG. 2) was “more efficient in the treatment of skin diseases, injuries or damages caused by radiation, when applied after the exposure to UVB, than the commercial creams (Vichy, Heliocare and Isdin)” and the “thickness of the epidermis 24 hours after irradiation, applied before UVB” value (SKH-1 mice [4]; FIG. 2) was “more efficient as photoprotector, when applied before the exposure to UVB, than the commercial creams (Vichy, Heliocare and Isdin)”. The “thickness of the epidermis 24 hours after irradiation (before or after application)” value (SKH-1 mice [4]; FIG. 2, versus group treated only with UV-B) was “produced better results than even commercial photoprotectors and Resveratrol”, the “thickness of the epidermis 1 week after irradiation, applied after UVB” value (SKH-1 mice [4]; FIG. 3) was “more efficient in the treatment of skin diseases, injuries or damages caused by radiation, when applied after the exposure to UVB, than the commercial creams (Vichy, Heliocare and Isdin)” and the “thickness of the epidermis 1 week after irradiation, applied before UVB” value (SKH-1 mice [4]; FIG. 3) was “more efficient as photoprotector, when applied before the exposure to UVB, than the commercial creams (Vichy, Heliocare and Isdin)”.
